Each structure is given as a SMILES string.

For the test, the target named is T1, Human autotaxin enzyme (Homo sapiens, UniProt Q13822).
T1 construct: purchased R&D System
The test can be described thus: Evaluation of autotaxin inhibitor, Method C (Test Example 3): 18:0 Lyso PC, choline assay, Resorufin fluorescence. The test is classed as biochemical. The conditions noted are these: Assay Method C (Test Example 3), human autotaxin, 18:0 Lyso PC substrate; read-out: Inhibitory Activity (autotaxin enzyme inhibitory activity, IC50 class). A digest of the protocol: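 Human autotaxin in Tris-HCl pH 7.5, 150 mM NaCl, 5 mM MgCl2, 0.05% Triton X-100 reacted 2 h at room temperature with 18:0 Lyso PC (200 μM solution added). Released choline detected via choline oxidase/peroxidase/Amplex-type reagent, resorufin fluorescence (ex 531/em 598 nm); inhibition vs no-compound and no-enzyme controls, concentration-response curve.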
Take `CCCCCn1c(-c2ccc(C(=O)N3CCS(=O)(=O)CC3)cc2)cc(=O)n2cc(-c3ccc(Cl)cc3)nc12` [Compound 492]: the 50% inhibitory concentration (IC50) is 10 to 100 nM. With `CCCCCn1c(-c2ccc(C(=O)NC3CCS(=O)(=O)CC3)cc2)cc(=O)n2cc(-c3ccc(Cl)cc3)nc12` [Compound 493] the figure was 10 to 100 nM; with `CCCCCn1c(-c2ccc(C(=O)NCCS(C)(=O)=O)cc2)cc(=O)n2cc(-c3ccc(Cl)cc3)nc12` [Compound 494], 10 to 100 nM; with `CCCCCn1c(-c2ccc(C(=O)NC)cc2)cc(=O)n2cc(-c3ccc(Cl)cc3)nc12` [Compound 495], 10 to 100 nM. To `CCCCCn1c(-c2ccc(C(=O)NCC(=O)N(C)C)cc2)cc(=O)n2cc(-c3ccc(Cl)cc3)nc12` [Compound 496] belongs 10 to 100 nM. For the compound `CCCCCn1c(-c2ccc(C(=O)NC3(CO)CCC3)cc2)cc(=O)n2cc(-c3ccc(Cl)cc3)nc12` [Compound 497], the IC50 lay in the range of 10 to 100 nM.

Turning to `CCCCCn1c(-c2ccc(C(=O)N3CCN(S(C)(=O)=O)CC3)cc2)cc(=O)n2cc(-c3ccc(Cl)cc3)nc12` [Compound 498], the IC50 lay within 10 to 100 nM. With `CCCCCn1c(-c2ccc(C(=O)NCCS(N)(=O)=O)cc2)cc(=O)n2cc(-c3ccc(Cl)cc3)nc12` [Compound 499] the figure was 10 to 100 nM; with `CCCCCn1c(-c2ccc(C(=O)NCC(C)=O)cc2)cc(=O)n2cc(-c3ccc(Cl)cc3)nc12` [Compound 500], 10 to 100 nM. To `CCCCCn1c(-c2ccc(C(=O)NCCS(=O)(=O)N3CCOCC3)cc2)cc(=O)n2cc(-c3ccc(Cl)cc3)nc12` [Compound 501] belongs 10 to 100 nM. With `CCCCCn1c(-c2ccc(C(=O)NC3CCOC3=O)cc2)cc(=O)n2cc(-c3ccc(Cl)cc3)nc12` (stereo not shown) [Compound 502] the figure was 10 to 100 nM; with `CCCCCn1c(-c2ccc(C(=O)N3C[C@@H]4COC(=O)[C@@H]4C3)cc2)cc(=O)n2cc(-c3ccc(Cl)cc3)nc12` [Compound 503], 10 to 100 nM. In the case of `CCCCCn1c(-c2ccc(C(=O)NC[C@@H](O)CO)cc2)cc(=O)n2cc(-c3ccc(Cl)cc3)nc12` [Compound 504], the IC50 was in the range of 10 to 100 nM. With `CCCCCn1c(-c2ccc(C(=O)NCCCn3ccnc3)cc2)cc(=O)n2cc(-c3ccc(Cl)cc3)nc12` [Compound 505] the figure was less than 10 nM. With `CCCCCn1c(-c2ccc(C(=O)NCc3ccco3)cc2)cc(=O)n2cc(-c3ccc(Cl)cc3)nc12` [Compound 506] the figure was 10 to 100 nM; with `CCCCCn1c(-c2ccc(C(=O)NCc3ccccn3)cc2)cc(=O)n2cc(-c3ccc(Cl)cc3)nc12` [Compound 507], 10 to 100 nM; with `CCCCCn1c(-c2ccc(C(=O)NCCc3ccccn3)cc2)cc(=O)n2cc(-c3ccc(Cl)cc3)nc12` [Compound 508], 10 to 100 nM. With `CCCCCn1c(-c2ccc(C(=O)NCc3ccc(N4CCOCC4)cc3)cc2)cc(=O)n2cc(-c3ccc(Cl)cc3)nc12` [Compound 509] the figure was 10 to 100 nM; with `CCCCCn1c(-c2ccc(C(=O)NC3CN4CCC3CC4)cc2)cc(=O)n2cc(-c3ccc(Cl)cc3)nc12` (stereo not shown) [Compound 510], less than 10 nM. Regarding `CCCCCn1c(-c2ccc(C(=O)NCCc3cncn3C)cc2)cc(=O)n2cc(-c3ccc(Cl)cc3)nc12` [Compound 511], the IC50 is 10 to 100 nM. Turning to `CCCCCn1c(-c2ccc(C(=O)NCCc3ccc(S(C)(=O)=O)cc3)cc2)cc(=O)n2cc(-c3ccc(Cl)cc3)nc12` [Compound 512], the IC50 is less than 10 nM. To `CCCCCn1c(-c2ccc(C(=O)NCCS(=O)(=O)N3CCCC3)cc2)cc(=O)n2cc(-c3ccc(Cl)cc3)nc12` [Compound 513] belongs 10 to 100 nM; to `CCCCCn1c(-c2ccc(C(=O)NCCn3ccnc3)cc2)cc(=O)n2cc(-c3ccc(Cl)cc3)nc12` [Compound 514], less than 10 nM; to `CCCCCn1c(-c2ccc(C(=O)NCCN3CCSCC3)cc2)cc(=O)n2cc(-c3ccc(Cl)cc3)nc12` [Compound 515], 10 to 100 nM. As for `CCCCCn1c(-c2ccc(C(=O)NCCN3CCNC3=O)cc2)cc(=O)n2cc(-c3ccc(Cl)cc3)nc12` [Compound 516], the half-inhibitory concentration (IC50) fell in the range of 10 to 100 nM. To `CCCCCn1c(-c2ccc(C(=O)NCCC(=O)N3CCOCC3)cc2)cc(=O)n2cc(-c3ccc(Cl)cc3)nc12` [Compound 517] belongs 10 to 100 nM. To `CCCCCn1c(-c2ccc(C(=O)NCc3ccc([N+](=O)[O-])cc3)cc2)cc(=O)n2cc(-c3ccc(Cl)cc3)nc12` [Compound 518] belongs 100 to 1000 nM; to `CCCCCn1c(-c2ccc(C(=O)NCc3ccc(S(C)(=O)=O)cc3)cc2)cc(=O)n2cc(-c3ccc(Cl)cc3)nc12` [Compound 519], 10 to 100 nM.

As to `CCCCCn1c(-c2ccc(C(=O)NCCCn3cc(-c4cccnc4)cn3)cc2)cc(=O)n2cc(-c3ccc(Cl)cc3)nc12` [Compound 520], the 50% inhibitory concentration (IC50) was in the range of 10 to 100 nM.

On to `CCCCCn1c(-c2ccc(C(=O)NCc3ccc(S(N)(=O)=O)cc3)cc2)cc(=O)n2cc(-c3ccc(Cl)cc3)nc12` [Compound 521], for which the IC50 fell in the range of 10 to 100 nM. Regarding `CCCCCn1c(-c2ccc(C(=O)NCCNC)cc2)cc(=O)n2cc(-c3ccc(Cl)cc3)nc12` [Compound 522], the IC50 was in the range of 10 to 100 nM. With `CCCCCn1c(-c2ccc(C(=O)NCCc3c[nH]cn3)cc2)cc(=O)n2cc(-c3ccc(Cl)cc3)nc12` [Compound 523] the figure was 10 to 100 nM; with `CCCCCn1c(-c2ccc(C(=O)NCCNC3CCS(=O)(=O)C3)cc2)cc(=O)n2cc(-c3ccc(Cl)cc3)nc12` (stereo not shown) [Compound 524], 10 to 100 nM; with `CCCCCn1c(-c2ccc(C(=O)NCc3ncc[nH]3)cc2)cc(=O)n2cc(-c3ccc(Cl)cc3)nc12` [Compound 525], 10 to 100 nM. On to `CCCCCn1c(-c2ccccn2)cc(=O)n2cc(-c3ccc(Cl)cc3)nc12` [Compound 528], for which the IC50 was in the range of 100 to 1000 nM.

With `CCCCCn1c(-c2ccc(C(=O)OC)cc2)cc(=O)n2cc(-c3ccc(Cl)cc3)nc12` [Compound 529], the IC50 is 100 to 1000 nM. With `CCCCCn1c(-c2cnc(C#N)nc2)cc(=O)n2cc(-c3ccc(Cl)cc3)nc12` [Compound 530] the figure was 10 to 100 nM; with `CCCCCn1c(-c2cnc(CNC(=O)[C@H](O)CO)nc2)cc(=O)n2cc(-c3ccc(Cl)cc3)nc12` [Compound 531], less than 10 nM; with `CCCCCn1c(-c2cnc(C(=O)OC)nc2)cc(=O)n2cc(-c3ccc(Cl)cc3)nc12` [Compound 532], 10 to 100 nM.

In the case of `CCCCCn1c(-c2cnc(C(=O)O)nc2)cc(=O)n2cc(-c3ccc(Cl)cc3)nc12` [Compound 533], the concentration for half-maximal inhibition (IC50) was less than 10 nM. For the compound `CCCCCn1c(-c2cnc(C(=O)NCCC(=O)OC)nc2)cc(=O)n2cc(-c3ccc(Cl)cc3)nc12` [Compound 534], the concentration for half-maximal inhibition (IC50) is less than 10 nM.

`CCCCCn1c(-c2cnc(C(=O)NCCN3CC4(COC4)C3)nc2)cc(=O)n2cc(-c3ccc(Cl)cc3)nc12` [Compound 535]: the half-inhibitory concentration (IC50) was less than 10 nM. To `CCCCCn1c(-c2cnc(C(=O)NCCC(=O)O)nc2)cc(=O)n2cc(-c3ccc(Cl)cc3)nc12` [Compound 536] belongs less than 10 nM; to `CCCCCn1c(OC2CNC2)cc(=O)n2cc(-c3ccc(Cl)cc3)nc12` [Compound 537], 10 to 100 nM; to `CCCCCn1c(OC2CCNCC2)cc(=O)n2cc(-c3ccc(Cl)cc3)nc12` [Compound 538], 100 to 1000 nM. To `CCCCCn1c(OC2CCN(C(=O)CN3CCOCC3)CC2)cc(=O)n2cc(-c3ccc(Cl)cc3)nc12` [Compound 539] belongs 10 to 100 nM.

One may read the IC50 as the concentration at which inhibition is half-maximal.

Source of the values: patent US20160002247A1, “8-SUBSTITUTED IMIDAZOPYRIMIDINONE DERIVATIVE HAVING AUTOTAXIN INHIBITORY ACTIVITY” (THE UNIVERSITY OF TOKYO, priority 2013, published 2016).
